Values of other authors as cited in patent US12251426B2 (priority 2020, dated 2025).

What was measured:
[1] = test system: human coronavirus NL63 (HCoV-NL63); conditions: in vivo study (so in the source)
influenza A virus = conditions: in vitro
SARS-CoV 3CLpro = SARS-CoV 3CLpro (Severe acute respiratory syndrome coronavirus, UniProt P0C6X7)
SARS-CoV-2 PLpro = SARS-CoV-2 PLpro (Severe acute respiratory syndrome coronavirus 2, UniProt P0DTD1)
phospholipase A2 (PLA2) = conditions: in vitro
[2] = normal intake
helicase = helicase (Severe acute respiratory syndrome coronavirus 2, UniProt P0DTD1)
3CLpro = 3CLpro (Severe acute respiratory syndrome coronavirus 2, UniProt P0DTD1)
[3] = molecular target: SARS-CoV-2 S-protein/ACE2 receptor interface (UniProt P0DTC2+Q9BYF1)
S2 subunit of SARS-CoV = S2 subunit of SARS-CoV (Severe acute respiratory syndrome coronavirus, UniProt P59594)
SARS-CoV PLpro = SARS-CoV PLpro (Severe acute respiratory syndrome coronavirus, UniProt P0C6X7)
SARS-CoV RdRp = SARS-CoV RdRp (Severe acute respiratory syndrome coronavirus, UniProt P0C6X7)
[4] = molecular target: SARS-CoV helicase protein (Severe acute respiratory syndrome coronavirus, UniProt P0C6X7)
T lymphocytes = conditions: in vitro, exogenous
[5] = test system: alveolar epithelial lining surface; conditions: acute lung injury caused by sepsis in mice
macrophages = conditions: in vitro

## O=C(O)/C=C/c1ccc(O)c(O)c1 [Caffeic acid, caffeic acid]
[1]
  inhibition of HCoV-NL63: blocking virus attachment
other
  water solubility: slightly water-soluble
Influenza A virus
  inhibitory effect on replication of influenza A virus: highly inhibitory effect

## O=C(O[C@@H]1Cc2c(O)cc(O)cc2O[C@@H]1c1cc(O)c(O)c(O)c1)c1cc(O)c(O)c(O)c1 [EGCG, epigallocatechin gallate]
SARS-CoV 3CLpro
  inhibition of SARS-CoV 3CLpro: inhibits
SARS-CoV-2 PLpro
  binding affinity to SARS-CoV-2 PLpro: strong binding affinity
Phospholipase A2 (PLA2)
  inhibition of PLA2: inhibit

## COc1ccc([C@@H]2CC(=O)c3c(O)cc(O[C@@H]4O[C@H](CO[C@@H]5O[C@@H](C)[C@H](O)[C@@H](O)[C@H]5O)[C@@H](O)[C@H](O)[C@H]4O)cc3O2)cc1O [Hesperidin, hesperidin]
[2]
  signs of toxicity: No signs of toxicity
helicase
  binding affinity to helicase: high binding affinity
3CLpro
  binding affinity to 3CLpro: high binding affinity

## O=c1cc(-c2ccc(O)c(O)c2)oc2cc(O)cc(O)c12 [Luteolin, luteolin]
[3]
  binding affinity to S-protein/ACE2 receptor interface: high binding affinity
S2 subunit of SARS-CoV
  binding affinity to S2 subunit of SARS-CoV: high binding affinity

## O=c1c(O)c(-c2ccc(O)c(O)c2)oc2cc(O)cc(O)c12 [Quercetin, quercetin]
SARS-CoV 3CLpro
  inhibition of SARS-CoV 3CLpro: inhibits
[3]
  binding affinity to S-protein/ACE2 receptor interface: significant binding affinity

## [Zn+2] [Zinc ions]
SARS-CoV 3CLpro
  inhibition of SARS-CoV 3CLpro: can inhibit
SARS-CoV PLpro
  inhibition of SARS-CoV PLpro: can also inhibit
SARS-CoV RdRp
  inhibition of SARS-CoV RdRp: direct inhibition

## O=c1c(O)c(-c2cc(O)c(O)c(O)c2)oc2cc(O)cc(O)c12 [myricetin]
[4]
  inhibition of SARS-CoV helicase protein: inhibits

## O=C1O[C@H]([C@@H](O)CO)C(O)=C1O [vitamin C, ascorbic acid]
T lymphocytes
  effect on number, proliferation, and function of T lymphocytes: increase
[5]
  repair of the alveolar epithelial lining surface: stimulates repair

## C=C1CC[C@H](O)C/C1=C/C=C1\CCC[C@]2(C)[C@@H]([C@H](C)CCCC(C)C)CC[C@@H]12 [vitamin D, cholecalciferol]
macrophages
  expression of anti-inflammatory cytokines by macrophages: increases
  expression of pro-inflammatory cytokines by macrophages: reduces
